Measurements published in US20170050957A1, “4-AMINO-6-(HETEROCYCLIC)PICOLINATES AND 6-AMINO-2-(HETEROCYCLIC)PYRIMIDINE-4-CARBOXYLATES AND THEIR USE AS HERBICIDES” (Dow AgroSciences LLC, priority 2013, published 2017).
Read-outs that look alike come from different tables or passages of the source.

What was measured:
[1] = tested on: Key Broadleaf Weed and Crop Species; assay: Post-emergent Test II herbicidal activity (Table 15); format: in vivo; details: post-emergence, 336 h, 14 d; for pest or weed control at 35 g/ha: 35 g ai/ha; for pest or weed control at 70 g/ha: 70 g ai/ha; for pest or weed control at 140 g/ha: 140 g ai/ha
Outline: (§1)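 Greenhouse-grown seedlings at first/second true leaf receive a track spray at 187 L/ha, using a highest rate plus two-fold serial dilutions down to 1/16×. Watering is by subirrigation to avoid wash-off. Percent injury (0-100) is judged by eye at 14 d against untreated plants.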

[2] = tested on: Key Grass and Sedge Weeds as well as Grass Crops; assay: Post-emergent Test II herbicidal activity (Table 16); format: in vivo; details: post-emergence, 336 h, 14 d; for pest or weed control at 35 g/ha: 35 g ai/ha; for pest or weed control at 70 g/ha: 70 g ai/ha; for pest or weed control at 140 g/ha: 140 g ai/ha
Outline: as §1

[3] = Abutilon theophrasti, velvetleaf (Abutilon theophrasti), read-out: Visual Growth Reduction (%) 14 Days After Application, ABUTH
[4] = Amaranthus retroflexus, redroot pigweed (Amaranthus retroflexus), read-out: Visual Growth Reduction (%) 14 Days After Application, AMARE
[5] = Brassica napus, oilseed rape, canola (Brassica napus), read-out: Visual Growth Reduction (%) 14 Days After Application, BRSNN
[6] = Chenopodium album, lambsquarters (Chenopodium album), read-out: Visual Growth Reduction (%) 14 Days After Application, CHEAL
[7] = Euphorbia heterophylla, wild poinsettia (Euphorbia heterophylla), read-out: Visual Growth Reduction (%) 14 Days After Application, EPHHL
[8] = Helianthus annuus, sunflower (Helianthus annuus), read-out: Visual Growth Reduction (%) 14 Days After Application, HELAN
[9] = Cyperus esculentus, yellow nutsedge (Cyperus esculentus), read-out: Visual Growth Reduction (%) 14 Days After Application, CYPES
[10] = Echinochloa crus-galli, barnyardgrass (Echinochloa crus-galli), read-out: Visual Growth Reduction (%) 14 Days After Application, ECHCG
[11] = Oryza sativa, rice (Oryza sativa), read-out: Visual Growth Reduction (%) 14 Days After Application, ORYSA
[12] = Setaria faberi, giant foxtail (Setaria faberi), read-out: Visual Growth Reduction (%) 14 Days After Application, SETFA
[13] = Triticum aestivum, wheat, spring (Triticum aestivum), read-out: Visual Growth Reduction (%) 14 Days After Application, TRZAS
[14] = Zea mays, maize, corn (Zea mays), read-out: Visual Growth Reduction (%) 14 Days After Application, ZEAMX

Row | Structure (SMILES) | pest or weed control at 35 g/ha [1, 3] [%] | pest or weed control at 70 g/ha [1, 3] [%] | pest or weed control at 140 g/ha [1, 3] [%] | pest or weed control at 35 g/ha [1, 4] [%] | pest or weed control at 70 g/ha [1, 4] [%] | pest or weed control at 140 g/ha [1, 4] [%] | pest or weed control at 35 g/ha [1, 5] [%] | pest or weed control at 70 g/ha [1, 5] [%] | pest or weed control at 140 g/ha [1, 5] [%] | pest or weed control at 35 g/ha [1, 6] [%] | pest or weed control at 70 g/ha [1, 6] [%] | pest or weed control at 140 g/ha [1, 6] [%] | pest or weed control at 35 g/ha [1, 7] [%] | pest or weed control at 70 g/ha [1, 7] [%] | pest or weed control at 140 g/ha [1, 7] [%] | pest or weed control at 35 g/ha [1, 8] [%] | pest or weed control at 70 g/ha [1, 8] [%] | pest or weed control at 140 g/ha [1, 8] [%] | pest or weed control at 35 g/ha [2, 9] [%] | pest or weed control at 70 g/ha [2, 9] [%] | further results
1 | COC(=O)c1nc(-c2ccc3cc[nH]c3c2F)cc(N)c1Cl [Compound 1.23, Methyl 4-amino-3-chloro-6-(7-fluoro-1H-indol-6-yl)picolinate] | 95 to 100 | 95 to 100 | 95 to 100 | 95 to 100 | 95 to 100 | 95 to 100 | 60 to 74 | 75 to 84 | 85 to 94 | 95 to 100 | 95 to 100 | 95 to 100 | 95 to 100 | 95 to 100 | 95 to 100 | 60 to 74 | 75 to 84 | 85 to 94 | 0 to 29 | 0 to 29 | pest or weed control at 140 g/ha [2, 9]: 0 to 29%; pest or weed control at 35 g/ha [2, 10]: 0 to 29%; pest or weed control at 70 g/ha [2, 10]: 0 to 29%; pest or weed control at 140 g/ha [2, 10]: 60 to 74%; pest or weed control at 35 g/ha [2, 11]: 0 to 29%; pest or weed control at 70 g/ha [2, 11]: 0 to 29%; pest or weed control at 140 g/ha [2, 11]: 0 to 29%; pest or weed control at 35 g/ha [2, 12]: 0 to 29%; pest or weed control at 70 g/ha [2, 12]: 0 to 29%; pest or weed control at 140 g/ha [2, 12]: 60 to 74%; pest or weed control at 35 g/ha [2, 13]: 0 to 29%; pest or weed control at 70 g/ha [2, 13]: 0 to 29%; pest or weed control at 140 g/ha [2, 13]: 30 to 44%; pest or weed control at 35 g/ha [2, 14]: 0 to 29%; pest or weed control at 70 g/ha [2, 14]: 0 to 29%; pest or weed control at 140 g/ha [2, 14]: 0 to 29%
2 | Nc1cc(-c2ccc3cc[nH]c3c2F)nc(C(=O)O)c1Cl [Compound 1.24] | 85 to 94 | 95 to 100 | 95 to 100 | 95 to 100 | 95 to 100 | 95 to 100 | 85 to 94 | 45 to 59 | 95 to 100 | 85 to 94 | 95 to 100 | 95 to 100 | 95 to 100 | 95 to 100 | 95 to 100 | 60 to 74 | 75 to 84 | 85 to 94 | 0 to 29 | 0 to 29 | pest or weed control at 140 g/ha [2, 9]: 0 to 29%; pest or weed control at 35 g/ha [2, 10]: 0 to 29%; pest or weed control at 70 g/ha [2, 10]: 0 to 29%; pest or weed control at 140 g/ha [2, 10]: 0 to 29%; pest or weed control at 35 g/ha [2, 11]: 0 to 29%; pest or weed control at 70 g/ha [2, 11]: 0 to 29%; pest or weed control at 140 g/ha [2, 11]: 0 to 29%; pest or weed control at 35 g/ha [2, 12]: 0 to 29%; pest or weed control at 70 g/ha [2, 12]: 45 to 59%; pest or weed control at 140 g/ha [2, 12]: 60 to 74%; pest or weed control at 35 g/ha [2, 13]: 0 to 29%; pest or weed control at 70 g/ha [2, 13]: 30 to 44%; pest or weed control at 140 g/ha [2, 13]: 45 to 59%; pest or weed control at 35 g/ha [2, 14]: 0 to 29%; pest or weed control at 70 g/ha [2, 14]: 0 to 29%; pest or weed control at 140 g/ha [2, 14]: 0 to 29%
